In patent publication US20180064755A1, “COMPOSITIONS AND METHODS FOR TREATING DRUG ADDICTION” (priority 2015, published 2018):

Test system: codeine addiction
Experiment: Blind trial, rubidium chloride to treat codeine addiction
Assay type: in vivo, human
Method: The trial below was a blind trial with 300 mg of rubidium chloride taken once per day administered in a glass of water in the morning by a person of 90 kg; and a placebo being taken by a person of 66 kg, both of whom were addicted to codeine
The trial was undertaken with the recommendation by doctors not to proceed too quickly and to eat potassium rich foods, especially at night; The most difficult aspect was to stop the craving in the evening—a solution for people who cannot stop the craving at night would be to split the dosage of the 300 mg of Rubidium Chloride and take half in the morning and half late in the afternoon.
The aim of this trial was to stop the craving for codeine with the aid of the compound and use the enhanced energy and stimulation supplied from the compound that was tested to change addiction habits.
The trial was for 300 mg of Rubidium Chloride taken once per day taken in a glass of water in the morning in this blind study and a placebo of powdered sugar taken once per day taken in a glass of water in the morning.

[1] = 90 kg male, 300 mg once per day, self-report

Compound: [Cl-].[Rb+] [rubidium chloride]
- craving for codeine (90 kg male addicted to codeine, 300 mg once per day in a glass of water in the morning, self-report): less craving for the drug than normal even after the first day
- energy and activity during the day [1]: much more energy than before
- stimulation from the medication [1]: very, very strong
- outcome of codeine addiction (90 kg male, 300 mg once per day, two month trial): lost the addiction to codeine
